Results from patent US11147272B2, “Pyridone compounds and agricultural and horticultural fungicides comprising the same as active ingredients” (MITSUI CHEMICALS AGRO, INC., priority 2017, dated 2021).

What was measured:
Magnaporthe grisea = assay: whole plant or invertebrate; format: in vivo; settings: Blast on rice; control value class
Alternaia brassicicola = assay: Test Example C: Alternaria sooty spot on cabbage; format: in vivo; settings: Alternaria sooty spot on cabbage; control value class
Source text: Seeds of a test plant (cabbage variety: Shikidori) were planted and cultivated until the cotyledons extended.
<Control Value> Control value=100{1−(n/3)}

Puccinia recondita = assay: Test Example E: Brown rust on wheat; format: in vivo; settings: Brown rust on wheat; control value class
Phytophthora infestans = assay: whole plant or invertebrate; format: in vivo; settings: Late blight on tomato; control value class
Botrytis cinerea = assay: Test Example B: Gray mold on tomato; settings: Gray mold on tomato; control value class
Plasmopara viticola = assay: Test Example G: Downy mildew on vine; settings: Downy mildew on vine; 250 ppm spray, 7 to 10 days after inoculation
[1] = test system: Colletotrichum orbiculare; assay: Test Example H: Anthracnose on cucumber; settings: Anthracnose on cucumber; 250 ppm spray, 6 to 10 days after inoculation
[2] = test system: Blumeria graminis f. sp. hordei; assay: Test Example D: Powdery mildew on barley; settings: Powdery mildew on barley; control value class

| SMILES | Test A control value (Magnaporthe grisea) | Test C control value (Alternaia brassicicola) | Test E control value (Puccinia recondita) | Test F control value (Phytophthora infestans) | Test B control value (Botrytis cinerea) | Test G control value (Plasmopara viticola) | Test H control value [1] | Test D control value [2] |
| --- | --- | --- | --- | --- | --- | --- | --- | --- |
| CCCc1cc(Br)c(=O)n(C)c1-c1ccc(OC)cc1Cl [compound 336] | H (more than 50% control value) | H (more than 50% control value) | H (more than 50% control value) | L (50% or less control value) | H (more than 50% control value) | H (more than 50% control value) | H (more than 50% control value) | L (50% or less control value) |
| CCOc1ccc(-c2c(CC)cc(Cl)c(=O)n2C)c(Cl)c1 [compound 337] | L (50% or less control value) | L (50% or less control value) | H (more than 50% control value) | L (50% or less control value) | H (more than 50% control value) | L (50% or less control value) | H (more than 50% control value) | L (50% or less control value) |
| CCC1=C(c2ccc(F)cc2Br)N(CC)C(=O)CC1 [compound 338] | L (50% or less control value) | H (more than 50% control value) | L (50% or less control value) | L (50% or less control value) | L (50% or less control value) | L (50% or less control value) | L (50% or less control value) | L (50% or less control value) |
| CCc1ccc(=O)n(CC)c1-c1ccc(F)cc1Br [compound 340] | L (50% or less control value) | H (more than 50% control value) | H (more than 50% control value) | L (50% or less control value) | H (more than 50% control value) | L (50% or less control value) | L (50% or less control value) | H (more than 50% control value) |
| CCCC1=C(c2ccc(F)cc2Br)N(C)C(=O)CC1 [compound 341] | L (50% or less control value) | L (50% or less control value) | L (50% or less control value) | L (50% or less control value) | L (50% or less control value) | L (50% or less control value) | H (more than 50% control value) | L (50% or less control value) |
| CCc1cc(Cl)c(=O)n(CC)c1-c1ccc(F)cc1Br [compound 342] | H (more than 50% control value) | H (more than 50% control value) | H (more than 50% control value) | L (50% or less control value) | H (more than 50% control value) | L (50% or less control value) | H (more than 50% control value) | H (more than 50% control value) |
| CCc1cc(Br)c(=O)n(CC)c1-c1ccc(F)cc1Br [compound 343] | H (more than 50% control value) | H (more than 50% control value) | H (more than 50% control value) | L (50% or less control value) | H (more than 50% control value) | H (more than 50% control value) | H (more than 50% control value) | H (more than 50% control value) |
| CCc1ccc(=O)n(CC)c1-c1ccc(OC)cc1Br [compound 344] | L (50% or less control value) | H (more than 50% control value) | H (more than 50% control value) | L (50% or less control value) | H (more than 50% control value) | L (50% or less control value) | L (50% or less control value) | L (50% or less control value) |
| CCc1cc(Cl)c(=O)n(CC)c1-c1ccc(OC)cc1Br [compound 345] | H (more than 50% control value) | H (more than 50% control value) | H (more than 50% control value) | L (50% or less control value) | H (more than 50% control value) | H (more than 50% control value) | H (more than 50% control value) | L (50% or less control value) |
| CCc1cc(Br)c(=O)n(CC)c1-c1ccc(OC)cc1Br [compound 346] | H (more than 50% control value) | H (more than 50% control value) | H (more than 50% control value) | L (50% or less control value) | H (more than 50% control value) | H (more than 50% control value) | H (more than 50% control value) | L (50% or less control value) |
| CCc1ccc(=O)n(CC)c1-c1ccc(F)cc1C [compound 347] | L (50% or less control value) | H (more than 50% control value) | L (50% or less control value) | L (50% or less control value) | H (more than 50% control value) | L (50% or less control value) | L (50% or less control value) | L (50% or less control value) |
| CCc1ccc(=O)n(C)c1-c1ccc(F)cc1Br [compound 348] | L (50% or less control value) | L (50% or less control value) | H (more than 50% control value) | L (50% or less control value) | H (more than 50% control value) | L (50% or less control value) | L (50% or less control value) | H (more than 50% control value) |
| CCc1cc(Cl)c(=O)n(C)c1-c1ccc(F)cc1Br [compound 349] | L (50% or less control value) | H (more than 50% control value) | H (more than 50% control value) | L (50% or less control value) | H (more than 50% control value) | H (more than 50% control value) | L (50% or less control value) | H (more than 50% control value) |
| CCc1cc(Br)c(=O)n(C)c1-c1ccc(F)cc1Br [compound 350] | L (50% or less control value) | H (more than 50% control value) | H (more than 50% control value) | L (50% or less control value) | H (more than 50% control value) | H (more than 50% control value) | L (50% or less control value) | L (50% or less control value) |
| CCc1cc(Cl)c(=O)n(CC)c1-c1ccc(F)cc1C [compound 351] | L (50% or less control value) | H (more than 50% control value) | H (more than 50% control value) | L (50% or less control value) | H (more than 50% control value) | L (50% or less control value) | H (more than 50% control value) | H (more than 50% control value) |
| CCc1cc(Br)c(=O)n(CC)c1-c1ccc(F)cc1C [compound 352] | H (more than 50% control value) | H (more than 50% control value) | H (more than 50% control value) | L (50% or less control value) | H (more than 50% control value) | L (50% or less control value) | H (more than 50% control value) | H (more than 50% control value) |
| CCc1ccc(=O)n(CC)c1-c1ccc(OC)cc1C [compound 353] | L (50% or less control value) | L (50% or less control value) | H (more than 50% control value) | L (50% or less control value) | L (50% or less control value) | L (50% or less control value) | L (50% or less control value) | H (more than 50% control value) |
| CCc1ccc(=O)n(C)c1-c1ccc(OC)cc1Br [compound 354] | L (50% or less control value) | L (50% or less control value) | H (more than 50% control value) | L (50% or less control value) | L (50% or less control value) | L (50% or less control value) | H (more than 50% control value) | L (50% or less control value) |
